Reference: patent US20130071854A1, “METHODS FOR THE IDENTIFICATION AND CHARACTERIZATION OF HDAC INTERACTING COMPOUNDS” (priority 2009, published 2013)
pKd: −log10 of the molar value. Like-named read-outs stand apart in the source and are kept apart here.

Assays:
Test in all cases: Chemoproteomic binding profiling, K562 cell extract, SAHA/ITF2357 probe matrix (Kd app)
[1] = biological target: T1, non-HDAC targets (e.g. BZW2, ISOC2, aldehyde dehydrogenases) (Homo sapiens, UniProt P16152); conditions: protein CBR1; selected HDACi off-targets
T1 construct: Kd^app CBR1; other: protein CBR1; selected HDACi off-targets
T1 sequence (P16152 1-277): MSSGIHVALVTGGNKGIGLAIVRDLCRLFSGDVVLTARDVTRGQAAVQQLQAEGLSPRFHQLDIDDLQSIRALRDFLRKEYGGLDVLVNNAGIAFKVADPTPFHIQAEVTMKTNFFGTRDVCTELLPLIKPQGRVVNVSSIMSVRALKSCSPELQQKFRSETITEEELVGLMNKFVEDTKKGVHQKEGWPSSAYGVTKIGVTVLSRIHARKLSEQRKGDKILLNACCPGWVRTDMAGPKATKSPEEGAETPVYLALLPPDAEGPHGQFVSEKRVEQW

[2] = biological target: T2, non-HDAC targets (e.g. BZW2, ISOC2, aldehyde dehydrogenases) (Homo sapiens, UniProt Q08209); conditions: protein PPP3CA; selected HDACi off-targets
T2 construct: Kd^app PPP3CA; other: protein PPP3CA; selected HDACi off-targets

HDAC1 = biological target: T3, HDAC1 (Homo sapiens, UniProt Q13547); conditions: protein HDAC1; class I HDAC; read-out: Kd^app HDAC1
T3 construct: used to probe endogenous HDACs in K562 whole cell extracts; endogenous in cells

HDAC10 = biological target: T4, HDAC10 (Homo sapiens, UniProt Q969S8); conditions: for binding profile for HDAC10 (in words): K562 cell extract
T4 construct: used to probe endogenous HDACs in K562 whole cell extracts; endogenous in cells
T4 sequence (Q969S8 1-669): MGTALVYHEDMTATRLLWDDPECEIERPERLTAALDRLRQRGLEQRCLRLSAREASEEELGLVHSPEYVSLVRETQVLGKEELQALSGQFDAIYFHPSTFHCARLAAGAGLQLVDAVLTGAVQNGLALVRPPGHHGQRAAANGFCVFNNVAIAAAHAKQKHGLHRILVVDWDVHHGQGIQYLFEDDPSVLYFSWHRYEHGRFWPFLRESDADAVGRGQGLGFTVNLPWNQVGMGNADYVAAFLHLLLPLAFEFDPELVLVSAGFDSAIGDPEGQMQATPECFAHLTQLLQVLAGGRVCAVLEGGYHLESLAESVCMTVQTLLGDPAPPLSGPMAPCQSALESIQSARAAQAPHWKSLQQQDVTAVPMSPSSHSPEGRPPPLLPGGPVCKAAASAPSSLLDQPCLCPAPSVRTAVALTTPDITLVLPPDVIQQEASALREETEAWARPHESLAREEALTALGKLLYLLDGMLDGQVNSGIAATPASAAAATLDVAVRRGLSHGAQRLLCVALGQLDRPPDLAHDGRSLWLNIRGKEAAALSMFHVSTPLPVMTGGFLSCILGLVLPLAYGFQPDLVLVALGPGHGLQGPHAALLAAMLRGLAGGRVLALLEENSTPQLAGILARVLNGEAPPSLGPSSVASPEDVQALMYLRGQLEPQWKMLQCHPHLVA

CoREST complex = tested on: CoREST complex; set-up: species or system human
NuRD complex = tested on: NuRD complex; set-up: species or system human
HDAC6 = biological target: T5, HDAC6 (Homo sapiens, UniProt Q9UBN7); set-up: used to probe endogenous HDACs in K562 whole cell extracts; endogenous in cells; conditions: for binding profile for HDAC6 (in words): K562 cell extract
T5 sequence (Q9UBN7 1-1215): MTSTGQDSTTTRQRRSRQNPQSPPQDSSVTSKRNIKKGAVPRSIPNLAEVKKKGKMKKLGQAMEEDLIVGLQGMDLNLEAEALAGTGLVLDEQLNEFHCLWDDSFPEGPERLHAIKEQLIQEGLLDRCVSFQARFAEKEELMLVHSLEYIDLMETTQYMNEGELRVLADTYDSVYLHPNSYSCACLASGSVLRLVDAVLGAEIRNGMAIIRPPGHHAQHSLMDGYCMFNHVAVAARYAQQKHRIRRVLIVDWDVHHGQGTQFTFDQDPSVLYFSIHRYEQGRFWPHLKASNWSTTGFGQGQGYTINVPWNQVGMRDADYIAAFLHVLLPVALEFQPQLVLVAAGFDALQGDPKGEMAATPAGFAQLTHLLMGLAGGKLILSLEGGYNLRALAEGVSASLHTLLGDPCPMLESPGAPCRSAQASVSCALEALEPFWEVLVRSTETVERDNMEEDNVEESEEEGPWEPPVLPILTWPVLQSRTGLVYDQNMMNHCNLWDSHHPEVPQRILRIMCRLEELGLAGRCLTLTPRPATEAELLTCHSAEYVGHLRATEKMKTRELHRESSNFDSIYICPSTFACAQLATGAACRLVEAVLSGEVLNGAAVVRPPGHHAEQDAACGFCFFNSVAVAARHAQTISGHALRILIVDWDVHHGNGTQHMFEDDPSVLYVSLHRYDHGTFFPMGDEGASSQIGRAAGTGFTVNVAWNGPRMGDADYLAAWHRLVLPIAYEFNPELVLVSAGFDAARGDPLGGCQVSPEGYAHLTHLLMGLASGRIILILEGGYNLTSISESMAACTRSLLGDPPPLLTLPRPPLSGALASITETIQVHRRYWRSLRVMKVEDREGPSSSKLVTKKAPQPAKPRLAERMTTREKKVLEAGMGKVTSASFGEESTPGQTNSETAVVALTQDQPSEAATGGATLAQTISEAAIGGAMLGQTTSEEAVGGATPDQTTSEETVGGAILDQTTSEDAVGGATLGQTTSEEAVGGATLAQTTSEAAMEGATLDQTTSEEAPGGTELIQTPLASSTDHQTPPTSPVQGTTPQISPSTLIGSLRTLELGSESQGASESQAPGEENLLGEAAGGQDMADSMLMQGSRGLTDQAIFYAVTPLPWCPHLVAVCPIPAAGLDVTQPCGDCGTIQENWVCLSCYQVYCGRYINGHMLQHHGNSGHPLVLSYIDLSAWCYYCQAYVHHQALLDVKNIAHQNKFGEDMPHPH

[3] = protein HDAC10, class II HDAC, read-out: Kd^app HDAC10
[4] = protein GSE1, CoREST complex, read-out: Kd^app GSE1
[5] = protein HMG20A, CoREST complex, read-out: Kd^app HMG20A
[6] = protein HMG20B, CoREST complex, read-out: Kd^app HMG20B
[7] = protein RCOR1, CoREST complex, read-out: Kd^app RCOR1
[8] = protein RCOR2, CoREST complex, read-out: Kd^app RCOR2
[9] = protein RCOR3, CoREST complex, read-out: Kd^app RCOR3
[10] = protein ZMYM2, CoREST complex, read-out: Kd^app ZMYM2
[11] = protein ZMYM3, CoREST complex, read-out: Kd^app ZMYM3
[12] = protein CHD4, NuRD complex, read-out: Kd^app CHD4
[13] = protein GATAD2A, NuRD complex, read-out: Kd^app GATAD2A
[14] = protein GATAD2B, NuRD complex, read-out: Kd^app GATAD2B
[15] = protein MBD2, NuRD complex, read-out: Kd^app MBD2
[16] = protein MBD3, NuRD complex, read-out: Kd^app MBD3
[17] = protein MTA1, NuRD complex, read-out: Kd^app MTA1
[18] = protein MTA2, NuRD complex, read-out: Kd^app MTA2
[19] = protein MTA3, NuRD complex, read-out: Kd^app MTA3
[20] = protein HDAC6, class II HDAC, read-out: Kd^app HDAC6

T3 sequence (Q13547 whole entry): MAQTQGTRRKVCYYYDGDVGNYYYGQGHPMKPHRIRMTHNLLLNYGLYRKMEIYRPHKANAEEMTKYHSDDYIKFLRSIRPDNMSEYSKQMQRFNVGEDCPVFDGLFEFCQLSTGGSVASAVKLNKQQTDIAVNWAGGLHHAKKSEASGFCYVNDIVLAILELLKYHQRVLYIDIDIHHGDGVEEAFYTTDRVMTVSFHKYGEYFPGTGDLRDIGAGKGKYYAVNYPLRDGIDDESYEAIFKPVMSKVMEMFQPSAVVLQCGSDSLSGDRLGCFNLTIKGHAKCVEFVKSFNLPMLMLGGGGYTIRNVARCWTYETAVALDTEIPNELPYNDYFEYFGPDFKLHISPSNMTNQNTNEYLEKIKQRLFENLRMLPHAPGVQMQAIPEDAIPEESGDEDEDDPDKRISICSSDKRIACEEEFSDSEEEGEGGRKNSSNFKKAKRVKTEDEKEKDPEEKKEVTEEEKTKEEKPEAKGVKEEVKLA

Compound	pKd [1]	pKd [2]	pKd (HDAC1)	pKd (HDAC10; [3])	pKd (CoREST complex; [4])	pKd (CoREST complex; [5])	pKd (CoREST complex; [6])	pKd (CoREST complex; [7])	pKd (CoREST complex; [8])	pKd (CoREST complex; [9])	pKd (CoREST complex; [10])	pKd (CoREST complex; [11])	pKd (NuRD complex; [12])	pKd (NuRD complex; [13])	pKd (NuRD complex; [14])	pKd (NuRD complex; [15])	pKd (NuRD complex; [16])	pKd (NuRD complex; [17])	pKd (NuRD complex; [18])	pKd (NuRD complex; [19])	further results
O=C(CCCCCCC(=O)Nc1ccccc1)NO [SAHA, suberoylanilide hydroxamic acid]	< 5.00	< 5.00	–	–	–	–	–	–	–	–	–	–	–	–	–	–	–	–	–	–	–
CCCC(CCC)C(=O)O [valproate, valproic acid]	< 5.00	< 5.00	3.45	< 5.00	3.65	3.49	3.42	3.59	3.51	3.56	3.15	3.04	3.26	2.99	3.07	2.89	3.03	3.28	3.00	3.18	pKd (CoREST complex; protein PHF21A, CoREST complex, read-out: Kd^app PHF21A): 3.36; pKd (HDAC6; read-out: Kd^app HDAC6, protein HDAC6, class II HDAC): < 5.00
Nc1ccccc1NC(=O)c1ccc(CNC(=O)OCc2cccnc2)cc1 [MS-275]	< 3.52	< 3.52	–	–	–	–	–	–	–	–	–	–	–	–	–	–	–	–	–	–	pKd (CoREST complex; read-out: Kd^app GSE1): < 3.52; pKd (CoREST complex; read-out: Kd^app HMG20A): < 3.52; pKd (CoREST complex; read-out: Kd^app HMG20B): < 3.52; pKd (CoREST complex; read-out: Kd^app PHF21A): < 3.52; pKd (CoREST complex; read-out: Kd^app RCOR1): < 3.52; pKd (CoREST complex; read-out: Kd^app RCOR2): < 3.52; pKd (CoREST complex; read-out: Kd^app RCOR3): < 3.52; pKd (CoREST complex; read-out: Kd^app ZMYM2): < 3.52; pKd (CoREST complex; read-out: Kd^app ZMYM3): < 3.52; pKd (NuRD complex; read-out: Kd^app CHD4): < 3.52; pKd (NuRD complex; read-out: Kd^app GATAD2A): < 3.52; pKd (NuRD complex; read-out: Kd^app GATAD2B): < 3.52; pKd (NuRD complex; read-out: Kd^app MBD2): < 3.52; pKd (NuRD complex; read-out: Kd^app MBD3): < 3.52; pKd (NuRD complex; read-out: Kd^app MTA1): < 3.52; pKd (NuRD complex; read-out: Kd^app MTA2): < 3.52; pKd (NuRD complex; read-out: Kd^app MTA3): < 3.52
CCCCOc1ccc(CC(=O)NO)cc1 [bufexamac]	3.83	3.52	< 4.22	5.00	< 4.22	< 4.22	< 4.22	< 4.22	< 4.22	< 4.22	3.89	3.76	3.41	3.24	< 4.22	–	3.39	3.77	3.26	3.20	binding profile for HDAC10 (in words) (HDAC10): selectivity for HDAC6 and HDAC10; binding profile for HDAC6 (in words) (HDAC6): selectivity for HDAC6 and HDAC10; pKd (HDAC6; [20]): 5.00
O=C(/C=C/c1cccc(S(=O)(=O)Nc2ccccc2)c1)NO [belinostat]	5.70	5.46	–	–	–	–	–	–	–	–	–	–	–	–	–	–	–	–	–	–	pKd (HDAC10): 5.35; pKd (HDAC6): 6.39
Nc1ccccc1NC(=O)CCCCCCC(=O)Nc1ccccc1 [BML-210]	< 4.07	< 4.07	4.44	< 4.07	4.29	4.40	4.30	4.34	4.07	4.26	< 4.07	< 4.07	4.52	< 4.07	4.16	4.08	4.23	4.82	–	4.16	binding profile for HDAC10 (in words) (HDAC10): complete loss of potency for class IIb; binding profile for HDAC6 (in words) (HDAC6): complete loss of potency for class IIb; pKd (HDAC6; [20]): < 4.07
